We go through 11 compounds from US4285858A, “Vasopressin analogs” (Mt. Sinai School of Medicine of the City University of N.Y., priority 1979, dated 1981).

Series [1] has as its system anesthetized rats. Kind of series: Pressor effect by intravenous injection into anesthetized rats. It is filed as in vivo, rat. The conditions noted are these: for Pressor Potencies (peak): rats, mean. Here is the method: (§1) The vasopressin analogs of this invention were tested for antidiuretic and pressor effects by intravenous injection into anesthetized rats using techniques described in Cort, J. H., Schuck, O., Stribrna, J. Skopkova, J., Jost. K., Mulder, J. L., Kidney Internat. 8:292,1975. The increase in Factor VIII after administration were analyzed in male canine citrated plasma. The Factor VIII were estimated by both the classical clotting assay (F-VIII(C)) and by radioimmunoassay (F-VIII(RIA)), both described in Prowse, C. V., Sas, G., Gader, A. M. A., Cort, J. H., Cash, J. D., Brit. H. Haematol. 41:437, 1979. The vasopressin analogs are suitable for administration to mammals by intravenous or subcutaneous injection containing 100 μg to 1 mg peptide/ml. The intravenous or subcutaneous doses would be in the range of 0.02 to 1.0 μg/kg. The intranasal dose range would be ten times the former dose.
(§2) The vasopressin analogs were injected intravenously into normal male dogs anesthetized with sodium pentothal. Blood was withdrawn from each dog after 30, 60 and 120 minutes and analyzed for F-VIII. Rats were also rested for antidiuretic and pressor activity due to the vasopressin analogs of this invention.

The subject of series [2] is Factor VIII. Kind of series: Factor VIII radioimmunoassay (F-VIII(RIA)) on blood of dogs after intravenous injection. Format: in vivo. The settings on record: dog, i.v.; for F-VIII 30' (RIA): 30 minutes; for F-VIII 60' (RIA): 60 minutes; for F-VIII 120' (RIA): 120 minutes. Here is the method: (§3) K., Mulder, J. L., Kidney Internat. 8:292,1975. The increase in Factor VIII after administration were analyzed in male canine citrated plasma. The Factor VIII were estimated by both the classical clotting assay (F-VIII(C)) and by radioimmunoassay (F-VIII(RIA)), both described in […]., Cort, J. H., Cash, J. D., Brit. H. Haematol. 41:437, 1979. […] The intravenous or subcutaneous doses would be in the range of 0.02 to 1.0 μg/kg. The intranasal dose range would be ten times the former dose. […] The compounds from Examples 4-8 were tested by intravenously injecting the compounds in physiological saline into a normal dog which was anesthetized using sodium pentothal. Blood samples were withdrawn from each dog after 30, 60 and 120 minutes and tested. […] The F-VIII factor level was also determined by radioimmunoassay(RIA). The results of these tests are reported in Table I. Desmopressin (10 μg/kg) was used as a reference injection peptide.

The subject of series [3] is Factor VIII. The experiment in a line: Factor VIII classical clotting assay (F-VIII(C)) on blood of dogs after intravenous injection. Format: in vivo. The settings on record: dog, i.v., pre-injection blood = 100%; for F-VIII 30' (c): 30 minutes; for F-VIII 60' (c): 60 minutes; for F-VIII 120' (c): 120 minutes. Here is the method: as §3
Series [4] relates to anesthetized rats. Kind of series: Antidiuretic effect by intravenous injection into anesthetized rats. Format: in vivo, rat. The conditions noted are these: for Antidiuretic Potencies (peak): rats, mean. Here is the method:
as §1, §2

The subject of a further series is F-VIII and PA. The settings on record: mammals; literature; cited from earlier work.
A further series deals with F-VIII. The settings on record: cited from earlier work.
Where [5] appears, read: 5 μg/kg, hemophiliac dog plasma = 0%.

Where a SMILES comes first, the peptide text is derived from it. Bridges are numbered along the chain shown (N, C = ends). [ ]: non-standard residue; d: D form. Mpa = O=C(O)CCS

As to `C[C@@H](NC(=O)[C@H](CCCNC(=N)N)NC(=O)[C@@H]1CCCN1C(=O)[C@@H]1CSSC[C@H](N)C(=O)N[C@@H](Cc2ccc(O)cc2)C(=O)N[C@@H](Cc2ccccc2)C(=O)N[C@@H](CCC(N)=O)C(=O)N[C@@H](CC(N)=O)C(=O)N1)C(N)=O` [Example 5, ([9-D-Ala-NH2]-arginine-vasopressin], the “Pressor Potencies (peak)” value with anesthetized rats [1] turned out to be 0.10 IU/mg. Besides, in the series with Factor VIII [2] (5 μg/kg), the “F-VIII 30' (RIA)” value amounted to 110%, the “F-VIII 60' (RIA)” value was determined as 107% and the “F-VIII 120' (RIA)” value stood at 98%. In the series with Factor VIII [2] (10 μg/kg), the “F-VIII 30' (RIA)” value is listed as 115%, the “F-VIII 60' (RIA)” value amounted to 110% and the “F-VIII 120' (RIA)” value is 115%. Also, the “F-VIII 30' (c)” value in the series on Factor VIII [3] (setting [5]) is 115%. Moreover, in the series with Factor VIII [3] (5 μg/kg), the “F-VIII 60' (c)” value came out at 120% and the “F-VIII 120' (c)” value is on record as 105%. In the series on Factor VIII [3] (10 μg/kg), the “F-VIII 30' (c)” value was 225%, the “F-VIII 60' (c)” value is reported as 128% and the “F-VIII 120' (c)” value came out at 115%. In the series with anesthetized rats [4], the “Antidiuretic Potencies (peak)” value is reported as 1.2 IU/mg.

Turning to `NC(=O)CC[C@@H]1NC(=O)[C@H](Cc2ccccc2)NC(=O)[C@H](Cc2ccc(O)cc2)NC(=O)CCSSC[C@@H](C(=O)N2CCC[C@H]2C(=O)N[C@H](CCCN=C(N)N)C(=O)NCC(N)=O)NC(=O)[C@H](CC(N)=O)NC1=O` [Desmopressin, 1-desamino-[8-D-ARG]-vasopressin, reference compound], the “effect on blood levels of F-VIII and PA” value in the series with F-VIII and PA is “highly potent and prolonged effects on F-VIII and PA release”. Further, in the series with anesthetized rats [1], the pressor activity result was “less than 0.2 IU/mg” and the “Pressor Potencies (peak)” value turned out to be 0.15 IU/mg. In addition, in the series on Factor VIII [2] (10 μg/kg), the “F-VIII 30' (RIA)” value was determined as 126%, the “F-VIII 60' (RIA)” value stood at 134% and the “F-VIII 120' (RIA)” value was determined as 164%. Moreover, in the series with F-VIII (hemophilia A and B, von Willebrand's disease, literature), the “effect on low F-VIII levels in patients” value is given as “increases low levels of F-VIII toward normal”. Moreover, the “antidiuretic side effect in clinical use” value with F-VIII (human, in vivo) is reported as “undesired water retention by the patients”. For the same compound, in the series with Factor VIII [3] (10 μg/kg), the “F-VIII 30' (c)” value stood at 220%, the “F-VIII 60' (c)” value was 250% and the “F-VIII 120' (c)” value is 210%. Further, in the series with anesthetized rats [4], the antidiuretic activity entry was “more than 1000 IU/mg” and the “Antidiuretic Potencies (peak)” value stood at 1100 IU/mg.

`CC[C@H](C)[C@@H]1NC(=O)[C@H](Cc2ccc(O)cc2)NC(=O)[C@@H](N)CSSC[C@@H](C(=O)N2CCC[C@H]2C(=O)N[C@@H](CC(C)C)C(=O)NCC(N)=O)NC(=O)[C@H](CC(N)=O)NC(=O)[C@H](CCC(N)=O)NC1=O` [oxytocin]: in the series with F-VIII and PA, the “effect on blood levels of F-VIII and PA” value is “no effect on increasing F-VIII and PA in blood”.

Turning to “1-desamino-6-monocarba-[8 -D-Arg]-vasopressin [dCDAVP]”, the “effect on blood levels of F-VIII and PA” value in the series with F-VIII and PA is “highly potent and prolonged effects on F-VIII and PA release”.

Take `CNCC(O)c1ccc(O)c(O)c1` (stereo not drawn) [adrenaline]: the “effect on blood levels of F-VIII and PA” value in the series with F-VIII and PA was “can increase the blood levels of both PA and F-VIII”.

On to arginine-vasotocin, for which the “effect on blood levels of F-VIII and PA” value in the series with F-VIII and PA is given as “far less active”.

`C[C@@H](NC(=O)[C@H](CCCNC(=N)N)NC(=O)[C@@H]1CCCN1C(=O)[C@@H]1CSSCCC(=O)N[C@@H](Cc2ccc(O)cc2)C(=O)N[C@@H](Cc2ccccc2)C(=O)N[C@@H](CCC(N)=O)C(=O)N[C@@H](CC(N)=O)C(=O)N1)C(N)=O` [Example 4, 1-Desamino-[9-D-Ala-NH]-arginine-vasopressin] ([Mpa]YFQNCPR[dA]-NH2; disulfide 1-6): the “Pressor Potencies (peak)” value with anesthetized rats [1] turned out to be 0.15 IU/mg. In addition, in the series on Factor VIII [2] (5 μg/kg), the “F-VIII 30' (RIA)” value came out at 115%, the “F-VIII 60' (RIA)” value was 125% and the “F-VIII 120' (RIA)” value came out at 130%. For the same compound, in the series with Factor VIII [2] (10 μg/kg), the “F-VIII 30' (RIA)” value is recorded as 124%, the “F-VIII 60' (RIA)” value stood at 132% and the “F-VIII 120' (RIA)” value worked out at 163%. Also, in the series with Factor VIII [3] (setting [5]), the “F-VIII 30' (c)” value worked out at 120%. In addition, in the series on Factor VIII [3] (5 μg/kg), the “F-VIII 60' (c)” value was 160% and the “F-VIII 120' (c)” value amounted to 170%. For the same compound, in the series with Factor VIII [3] (10 μg/kg), the “F-VIII 30' (c)” value worked out at 230%, the “F-VIII 60' (c)” value turned out to be 250% and the “F-VIII 120' (c)” value was 240%. Also, the “Antidiuretic Potencies (peak)” value in the series on anesthetized rats [4] was 1.8 IU/mg.

On to “angiotensin II (DRVYIHPF; Angiotensin-2; UniProt P01019 25-32, looked up) [other pressor substance]”, for which the “effect on blood levels of F-VIII and PA” value in the series with F-VIII and PA is “no effect on increasing F-VIII and PA in blood”.

As for `C[C@H](NC(=O)[C@@H](CCCNC(=N)N)NC(=O)[C@@H]1CCCN1C(=O)[C@@H]1CSSCCC(=O)N[C@@H](Cc2ccc(O)cc2)C(=O)N[C@@H](Cc2ccccc2)C(=O)N[C@@H](CCC(N)=O)C(=O)N[C@@H](CC(N)=O)C(=O)N1)C(N)=O` [Example 8, (1-desamino-[8-D-Arg, 9-Ala-NH2]arginine)-vasopressin] ([Mpa]YFQNCP[dR]A-NH2; disulfide 1-6), in the series on anesthetized rats [1], the “Pressor Potencies (peak)” value was 0.09 IU/mg. Moreover, in the series with Factor VIII [2] (10 μg/kg), the “F-VIII 30' (RIA)” value turned out to be 120%, the “F-VIII 60' (RIA)” value was 145% and the “F-VIII 120' (RIA)” value was determined as 155%. Also, in the series on Factor VIII [3] (10 μg/kg), the “F-VIII 30' (c)” value was determined as 155%, the “F-VIII 60' (c)” value stood at 150% and the “F-VIII 120' (c)” value is 140%. Further, the “Antidiuretic Potencies (peak)” value in the series with anesthetized rats [4] came out at 2.23 IU/mg.

Take `NC(=O)CC[C@@H]1NC(=O)[C@H](Cc2ccccc2)NC(=O)[C@H](Cc2ccc(O)cc2)NC(=O)[C@@H](N)CSSC[C@@H](C(=O)N2CCC[C@H]2C(=O)N[C@@H](CCCN=C(N)N)C(=O)NCC(N)=O)NC(=O)[C@H](CC(N)=O)NC1=O` [vasopressin]: the “effect on blood levels of F-VIII and PA” value in the series on F-VIII and PA was “can increase the blood levels of both PA and F-VIII”.

On to “(1-desamino-6-monocarba[9-D-Ala-NH2 ]-arginine)-vasopressin [Example 7]”, for which the “Pressor Potencies (peak)” value in the series on anesthetized rats [1] was 0.18 IU/mg. Besides, in the series with Factor VIII [2] (5 μg/kg), the “F-VIII 30' (RIA)” value was 140%, the “F-VIII 60' (RIA)” value is on record as 150% and the “F-VIII 120' (RIA)” value came out at 155%. Moreover, in the series with Factor VIII [2] (10 μg/kg), the “F-VIII 30' (RIA)” value was 125%, the “F-VIII 60' (RIA)” value was 165% and the “F-VIII 120' (RIA)” value is recorded as 180%. In the series with Factor VIII [3] (setting [5]), the “F-VIII 30' (c)” value is reported as 145%. In addition, in the series on Factor VIII [3] (5 μg/kg), the “F-VIII 60' (c)” value was determined as 190% and the “F-VIII 120' (c)” value was 210%. In the series on Factor VIII [3] (10 μg/kg), the “F-VIII 30' (c)” value was 240%, the “F-VIII 60' (c)” value came out at 255% and the “F-VIII 120' (c)” value was 266%. In addition, the “Antidiuretic Potencies (peak)” value with anesthetized rats [4] turned out to be 1.9 IU/mg.
